Data taken from patent US20190292243A1, “PEPTIDES AND METHODS OF USE THEREOF” (Fred Hutchinson Cancer Research Center, priority 2016, published 2019).
Where two headings read alike, the source gives them in different places. Marks after values point to notes of the source that are not given here. Bridge positions count the residues as written; N and C are the ends. Ends that are not written are not given here. Peptide text beside a SMILES is read from it. * marks the point of attachment. Me2Gly = CN(C)CC(=O)*

Assays:
[1] = Pharmacokinetics of radiolabeled peptide in plasma by liquid scintillation counting (PKSolver 2 compartment); assay type: in vivo, female Harlan athymic nude mice; parameters: AUC0-inf (area under the curve): unit not given here; details: 2 μCi/33 nmol
[2] = Method: (§1) This example describes analysis of the pharmacokinetics of a peptide of the disclosure. A ^14C radiolabeled peptide of SEQ ID NO: 15 (SEQ ID NO: 15-r) was administered to 6-10 week old female Harlan athymic mice at a dose of 2 μCi/33 nmol via intravenous administration, intraperitoneal administration, oral administration or subcutaneous administration. At each time point, urine was collected by massaging the abdomen and mice were subsequently euthanized by CO2 asphyxiation. Blood was collected by cardiac exsanguination following cessation of respiratory movement. Plasma was separated by centrifugation and frozen until further analysis. Radioactivity in biological samples (plasma or urine) was detected by liquid scintillation counting on a Beckman Scintillation counter at a read time of 10 minutes. For HPLC evaluation, urine and plasma samples were diluted 20 μl in 80 μl and analyzed on an Agilent analytical HPLC equipped with an inline Raytest scintillation detector. Pharmacokinetics analysis was performed using the PKSolver 2 compartment IV or extravascular bolus.
HPLC was used to separate peptide fragments and liquid scintillation counting was used to quantify the radioactive signal of intact peptides or peptide fragment. SEQ ID NO: 15-r was spiked in as a positive control for intact peptide and Glycine was spiked in as a negative control for metabolized peptide. […] SEQ ID NO: 15-r was spiked in as a positive control for intact peptide and Glycine was spiked in as a negative control for metabolized peptide. […] SEQ ID NO: 15-r was spiked in as a positive control for intact peptide and Glycine was spiked in as a negative control for metabolized peptide. […] SEQ ID NO: 15-r was spiked in as a positive control for intact peptide and Glycine was spiked in as a negative control for metabolized peptide.

[3] = remark: listed apart in the source
Method: as §1
SEQ ID NO: 15-r was spiked in as a positive control for intact peptide and Glycine was spiked in as a negative control for metabolized peptide. […] HPLC was used to separate peptide fragments and liquid scintillation counting was used to quantify the radioactive signal of intact peptides or peptide fragment. […] SEQ ID NO: 15-r was spiked in as a positive control for intact peptide and Glycine was spiked in as a negative control for metabolized peptide. […] SEQ ID NO: 15-r was spiked in as a positive control for intact peptide and Glycine was spiked in as a negative control for metabolized peptide. […] SEQ ID NO: 15-r was spiked in as a positive control for intact peptide and Glycine was spiked in as a negative control for metabolized peptide.

[4] = test system: HeLa cells; test: Uptake of peptide-AF647 conjugate in HeLa cells (fluorescence microscopy, flow cytometry, endocytosis inhibitors); assay type: cell-based; details: for effect of endocytic inhibitors on uptake of SEQ ID NO: 15-A: SEQ ID NO: 15-A at 4 μM, flow cytometry, pre-treatment of HeLa cells
Method: SEQ ID NO: 15-A and HIV-Tat-FITC, an HIV-Tat protein conjugated to a FITC fluorophore, were each dosed in HeLa cells at a concentration of 20 μM. The fluorescence image was taken on a Nikon Live microscope at 40× magnification, four hours after cells were dosed with SEQ ID NO: 15-A and HIV-Tat-FITC. The green fluorescence (FITC) and the red fluorescence (AF647) were located in different punctate regions, showing that the two molecules are localized in different vesicles.
Fluorescence was measured via flow cytometry and quantified to determine uptake of the peptide conjugate in cells.
SEQ ID NO: 15-A was dosed at a concentration of […] HIV-Tat-FITC was dosed at a concentration of 1 mM, and Dextran-Texas Red was dosed at a concentration of 25 mg/ml.

[5] = Folding of manufactured peptide variants (HPLC traces); assay type: physicochemical
From the text: Generally, the NMR solution structures of related structural homologs can be used to inform mutational strategies that may improve the folding, stability, manufacturability, while maintaining a particular biological function. They can be used to predict the 3D pharmacophore of a group of structurally homologous scaffolds, as wells as to predict possible graft regions of related proteins to create chimeras with improved properties. The general strategy for producing homologs can include identification of a charged surface patch of a protein, mutation of critical amino acid positions and loops, and testing of sequences. This strategy can be used to design peptides with improved properties or to correct deleterious mutations that complicate folding and manufacturability. […] Accordingly, three amino acid positions (R11, R13, and R31) were chosen to be individually mutated to improve stability, yielding peptides of SEQ ID NO: 18, SEQ ID NO: 20, and SEQ ID NO: 25.
This example illustrates the modification of a function of a peptide. A peptide of SEQ ID NO: 15 was modified at positively charge patches to give a peptide of SEQ ID NO: 1 and a peptide of SEQ ID NO: 2. The modified peptides were expressed recombinantly. Mutations at positively charged patches of a peptide of SEQ ID NO: 15 were not well tolerated as indicated by the lack of folding purity indicated by the HPLC traces in FIG. 15.

[6] = IP, 3 hr, 0 = no intact peptide was measured

Molecule: CC(C)C[C@@H]1NC(=O)[C@H]([C@@H](C)O)NC(=O)[C@@H]2CSSC[C@@H]3NC(=O)[C@H]([C@@H](C)O)NC(=O)[C@H](CC(N)=O)NC(=O)[C@H](CSSC[C@@H](C(=O)N4CCC[C@H]4C(=O)N[C@@H](CC(N)=O)C(=O)N[C@@H](CCC(N)=O)C(=O)O)NC(=O)[C@H](C)NC(=O)[C@H](CCCNC(=N)N)NC1=O)NC(=O)[C@H](CCCNC(=N)N)NC(=O)[C@H](CC(=O)O)NC(=O)[C@H](CCCNC(=N)N)NC(=O)[C@H](Cc1ccccc1)NC(=O)[C@H]([C@@H](C)O)NC(=O)[C@H](CCCNC(=N)N)NC(=O)CNC(=O)[C@@H]1CCCN1C(=O)[C@H](CCC(=O)O)NC(=O)[C@@H](NC(=O)[C@H](CO)NC(=O)[C@H](CO)NC(=O)CN(C)C)CSSC[C@H](NC(=O)[C@H](CCCNC(=N)N)NC3=O)C(=O)NCC(=O)N[C@@H](C)C(=O)N[C@@H](CC(=O)O)C(=O)NCC(=O)N[C@@H](CCCNC(=N)N)C(=O)N[C@@H](CO)C(=O)N[C@@H](C)C(=O)N[C@@H](C)C(=O)N2 [SEQ ID NO: 15-r] (Me2Gly-SSCEPGRTFRDRCNTCRCGADGRSAACTLRACPNQ-OH; disulfide 3-18, 13-32, 16-27 (inferred); N-terminus and C-terminus assumed)
- AUC0-inf (area under the curve) ([1]; IP): 25.59
- CL/F (drug clearance over time) ([1]; IP): 1.28 nmol/(pmol/μl)/h
- Cmax (peak drug concentration) ([1]; IP): 5.23 pmol/µL
- AUC0-inf (area under the curve) ([1]; IV): 19.08
- CL/F (drug clearance over time) ([1]; IV): 1.73 nmol/(pmol/μl)/h
- Cmax (peak drug concentration) ([1]; IV): 33* pmol/μl
- AUC0-inf (area under the curve) ([1]; Oral): 46
- CL/F (drug clearance over time) ([1]; Oral): 0.53 nmol/(pmol/μl)/h
- Cmax (peak drug concentration) ([1]; Oral): 0.59 pmol/µL
- AUC0-inf (area under the curve) ([1]; SC): 171
- CL/F (drug clearance over time) ([1]; SC): 0.144 nmol/(pmol/μl)/h
- Cmax (peak drug concentration) ([1]; SC): 8.57 pmol/µL
- percentage of AUC of intact peptide of the total radioactive signal (total AUC) in plasma ([2]; IP, 5 min): 94%
- percentage of AUC of intact peptide of the total radioactive signal (total AUC) in plasma ([2]; IP, 30 min): 100%
- percentage of AUC of intact peptide of the total radioactive signal (total AUC) in plasma ([2]; IP, 1 hr): 66%
- percentage of AUC of intact peptide of the total radioactive signal (total AUC) in plasma [2, 6]: 0%
- percentage of AUC of intact peptide of the total radioactive signal (total AUC) in plasma ([2]; IV, 5 min): 92%
- percentage of AUC of intact peptide of the total radioactive signal (total AUC) in plasma ([2]; IV, 30 min): 100%
- percentage of AUC of intact peptide of the total radioactive signal (total AUC) in plasma ([2]; PO, 8 hr): 45%
- percentage of AUC of intact peptide of the total radioactive signal (total AUC) in plasma ([2]; SC, 5 min): 100%
- percentage of AUC of intact peptide of the total radioactive signal (total AUC) in plasma ([2]; SC, 30 min): 88%
- percentage of AUC of intact peptide of the total radioactive signal (total AUC) in plasma ([2]; SC, 1 hr): 50%
- time by which intact peptide signal in plasma reached baseline ([2]; intraperitoneal injection): ≤ 3 h
- time by which intact peptide signal in plasma reached baseline ([2]; intravenous injection): ≤ 3 h
- intact peptide or breakdown products observed in plasma ([2]; oral administration): neither intact peptide or breakdown products of the peptide were observed in plasma
- percentage of AUC of intact peptide of the total radioactive signal (total AUC) in urine ([3]; IP, 5 min): 60%
- percentage of AUC of intact peptide of the total radioactive signal (total AUC) in urine ([3]; IP, 30 min): 49%
- percentage of AUC of intact peptide of the total radioactive signal (total AUC) in urine [3, 6]: 0%
- percentage of AUC of intact peptide of the total radioactive signal (total AUC) in urine ([3]; IP, 24 hr, 0 = no intact peptide was measured): 0%
- percentage of AUC of intact peptide of the total radioactive signal (total AUC) in urine ([3]; IP, 48 hr, 0 = no intact peptide was measured): 0%
- percentage of AUC of intact peptide of the total radioactive signal (total AUC) in urine ([3]; IV, 5 min): 77%
- percentage of AUC of intact peptide of the total radioactive signal (total AUC) in urine ([3]; IV, 30 min): 47%
- percentage of AUC of intact peptide of the total radioactive signal (total AUC) in urine ([3]; IV, 1 hr): 43%
- percentage of AUC of intact peptide of the total radioactive signal (total AUC) in urine ([3]; IV, 3 hr, 0 = no intact peptide was measured): 0%
- percentage of AUC of intact peptide of the total radioactive signal (total AUC) in urine ([3]; IV, 8 hr, 0 = no intact peptide was measured): 0%
- percentage of AUC of intact peptide of the total radioactive signal (total AUC) in urine ([3]; IV, 24 hr, 0 = no intact peptide was measured): 0%
- percentage of AUC of intact peptide of the total radioactive signal (total AUC) in urine ([3]; PO, 3 hr, 0 = no intact peptide was measured): 0%
- percentage of AUC of intact peptide of the total radioactive signal (total AUC) in urine ([3]; PO, 8 hr, 0 = no intact peptide was measured): 0%
- percentage of AUC of intact peptide of the total radioactive signal (total AUC) in urine ([3]; PO, 48 hr, 0 = no intact peptide was measured): 0%
- percentage of AUC of intact peptide of the total radioactive signal (total AUC) in urine ([3]; SC, 5 min, 0 = no intact peptide was measured): 0%
- percentage of AUC of intact peptide of the total radioactive signal (total AUC) in urine ([3]; SC, 30 min, 0 = no intact peptide was measured): 0%
- percentage of AUC of intact peptide of the total radioactive signal (total AUC) in urine ([3]; SC, 1 hr, 0 = no intact peptide was measured): 0%
- percentage of AUC of intact peptide of the total radioactive signal (total AUC) in urine ([3]; SC, 8 hr, 0 = no intact peptide was measured): 0%
- percentage of AUC of intact peptide of the total radioactive signal (total AUC) in urine ([3]; SC, 48 hr, 0 = no intact peptide was measured): 0%
- time by which intact peptide in urine dropped to baseline ([3]; intraperitoneal injection): ≤ 3 h
- time by which intact peptide signal in urine reached baseline ([3]; intravenous injection): ≤ 3 h
- intact peptide observed in urine ([3]; oral administration): intact peptide was not observed in urine
- intact peptide observed in urine ([3]; subcutaneous administration): intact peptide was not observed in urine

Molecule: CCCCC[C@@H](O)[C@H]1C(=O)O[C@H](C)[C@@H](O)/C=C/C=C/C=C/C=C/C=C(\C)[C@@H](O)C[C@H](O)C[C@H](O)C[C@H](O)C[C@H](O)C[C@H](O)C[C@@H]1O [filipin]
- effect of endocytic inhibitors on uptake of SEQ ID NO: 15-A [4]: inhibit the uptake of SEQ ID NO: 15-A

Molecule: GSSCEPGRTFADACNTCRCGADGRSAACTLAACPNQ [SEQ ID NO: 2]
- folding of the manufactured peptide [5]: unable to fold

Molecule: GSSCEPGRTFEDECNTCRCGADGRSAACTLEACPNQ [SEQ ID NO: 1]
- folding of the manufactured peptide [5]: unable to fold

Molecule: GSSCEPGRTFEDRCNTCRCGADGRSAACTLRACPNQ [SEQ ID NO: 18]
- folding of the manufactured peptide [5]: Improved folding

Molecule: GSSCEPGRTFRDECNTCRCGADGRSAACTLRACPNQ [SEQ ID NO: 20]
- folding of the manufactured peptide [5]: Improved folding

Molecule: GSSCEPGRTFRDRCNTCRCGADGRSAACTLEACPNQ [SEQ ID NO: 25]
- folding of the manufactured peptide [5]: Improved folding

Molecule: SEQ ID NO: 15-A (GSSCEPGRTFRDRCNTCRCGADGRSAACTLRACPNQ; cysteine pairing not given here; also: conjugate A)
- internalization by HeLa cells (fluorescence image) ([4]; 20 μM, four hours after dosing, 40×): internalized by HeLa cells

Molecule: methyl-beta-cyclodextrin [methyl-beta-cyclodextrin (MBCD)]
- inhibition of uptake of SEQ ID NO: 15-A relative to dextran and HIV-Tat ([4]; 2 mM MBCD pre-treatment of HeLa cells): inhibits uptake of SEQ ID NO: 15-A to a greater extent than dextran, a fluid-phase marker, or HIV-Tat
- effect of endocytic inhibitors on uptake of SEQ ID NO: 15-A [4]: inhibit the uptake of SEQ ID NO: 15-A
